In patent US20030224076A1, “Anti-inflammatory and chemopreventive composition” (priority 2002, published 2003):

Key:
Caco-2 cells = assay: Protection of intestinal cells from genotoxic agents (comet assay, menadione-induced DNA damage); type: cell-based, human; settings: menadione 2 μM alone (induced DNA damage)
Experimental: The procedure for the method is as follows: The human colon adenocarcinoma cell line Caco-2 was cultivated in Dulbecco's MEM/nut mix F-12 Ham medium (Gibco) with 20% FCS (Gibco) and 1% penicillin/streptomycin (Gibco). The cells were seeded in Petri dishes (ø 35 mm) 24 h before substance incubation. After incubation with the physiological extract from carob fiber (stock solution: 10% w/v carob fiber, Caromax™, Nutrinova, in cell culture medium, working solutions: 0.001-1%), the cells were washed with PBS buffer solution (phosphate buffered salt solution) and subsequently treated with the DNA-damaging agent menadione (2 μM) and trypsinized/centrifuged. This was followed by testing for the preventive activity of the carob fiber extracts. The modulation of DNA damage by the carob fiber extracts compared with the untreated control was checked by single-cell gel electrophoresis (comet assay). The extent of DNA damage was quantified from the proportion of DNA in the comet tail (% tail intensity, TI %). The independent baseline damage was always also measured in control tests.

[1] = Reactivity toward the mediator of inflammation hypochlorous acid (ethene liberation from ACC, GC); type: biochemical; settings: HOCl 25 μM, ACC 1 mM, pH 5.7, 37° C., 30 minutes
Source text: Reactivity Toward the Mediator of Inflammation Hypochlorous Acid (HOCl) Cytotoxic hypochlorous acid is a specific product of phagocytosis-competent neutrophilic granulocytes. It is used to kill phagocytosed bacteria and viruses inside these leukocytes. Hypochlorous acid is, however, secreted through the leukocyte membrane into the extracellular medium, i.e. into the surrounding tissue, and there proves to be responsible for unwanted reactions like those observed at foci of inflammation (pain, reddening, swelling). A possible procedure for detecting the reactivity toward HOCI is as follows. HOCI liberates ethene specifically from ACC (1-aminocyclopropane-1-carboxylic acid), and the ethene is determined by gas chromatography. The following mixture is chosen to examine the interaction of the test substance in this model system: [table] The hypochlorous acid is allowed to interact with the bulking agents for 30 seconds and only then is the indicator molecule ACC added. The volume-calibrated reaction vessels which are closed gas-tight are then incubated at 37° C. for 30 minutes, and the ethene liberation is measured by GC. 5-aminosalicylate is employed in concentrations of 0.5-100 μM as positive control.

Row | Structure (SMILES) | TI % (proportion of DNA in the comet tail, % tail intensity) (Caco-2 cells) [%] | Amount of ethene liberated from ACC in % ([1]; 5-aminosalicylate 0.5 μM) [%] | Amount of ethene liberated from ACC in % ([1]; 5-aminosalicylate 1 μM) [%] | Amount of ethene liberated from ACC in % ([1]; 5-aminosalicylate 5 μM) [%] | Amount of ethene liberated from ACC in % ([1]; 5-aminosalicylate 10 μM) [%] | Amount of ethene liberated from ACC in % ([1]; 5-aminosalicylate 50 μM) [%] | Amount of ethene liberated from ACC in % ([1]; 5-aminosalicylate 100 μM) [%]
1 | CC1=CC(=O)c2ccccc2C1=O [menadione] | 13.6 |  |  |  |  |  | 
2 | Nc1ccc(O)c(C(=O)O)c1 [5-Aminosalicylate, 5-aminosalicylate] |  | 100 | 92 | 52 | 13 | 5 | 3
